The first experiment has as its target T1, recombinant N-terminal GST-tagged human Rho kinase 2 (ROCK2, amino acids 1-552) (Homo sapiens, UniProt O75116).
T1 construct: ROCK2, amino acids 1-552; purchased Invitrogen Inc. PV3759
Put plainly: In vitro Rho kinase assay (luciferase-based ATP consumption), ROCK2. The class given is biochemical. The settings on record: ROCK2 IC50, recombinant GST-tagged human ROCK2, luciferase-based ATP consumption. Here is the method: In Vitro Rho Kinase Assay
Rho kinase biochemical assays described below depend on firefly luciferase-based, indirect measurement of total ATP consumption by the kinase following incubation with substrate and ATP. 25 μl of Rho kinase assay buffer (20 mM Tris-HCL [pH 7.5], 1 mM MgCl2, 0.4 mM CaCl2, 0.15 mM EGTA, 0.1 mg/ml bovine serum albumin) containing 0.82 μg/ml of recombinant N-terminal GST-tagged human Rho kinase 1 (ROCK1, amino acids 1-535, Invitrogen Inc., cat. #PV-3691) or recombinant N-terminal GST-tagged human Rho kinase 2 (ROCK2, amino acids 1-552, Invitrogen Inc., cat #PV3759), 100 μg/ml S6 peptide substrate (related to amino acids 218-249 of the human 40S ribosomal protein S6, and suitable for ROCK1 or ROCK2, e.g. Upstate/Millipore Inc., cat #12-420), and 3 µM ATP are dispensed to wells of a 384 multi-well opaque plate. The plate is centrifuged for 30 seconds at approximately 200×g. 240 nl of test compound in DMSO is dispensed to each well by passive pin transfer. The lag phase of this in vitro kinase reaction permits addition of compounds soon after the reaction initiates. The reaction is allowed to incubate at 30° C. for 2 hours. The assay plates are sealed and maintained in a humidified environment. After 2 hours, 25 μl of easylite protein kinase assay reagent (Perkin-Elmer, Inc.) is dispensed. After an additional 10 minute incubation at room temperature (about 22° C.), luminescence activity is measured on a Molecular Devices Analyst multi-mode plate reader or other suitable plate reader. Kinase inhibition results in less ATP consumption, and therefore increased luminescence signal. Negative control activity is measured with DMSO lacking any test compound. The positive control is 2-methyl-1-(4-methylisoquinolin-5-ylsulfonyl)perhydro-1,4-diazepine hydrochloride (aka H-1152P, HCl salt). Efficacy is measured as a percentage of positive control activity. […] In some cases, kinase reactions and compound testing are performed in 1536 multi-well plates under similar conditions, with assay volumes appropriately scaled. The designation NT means the cited example was not tested.
T1 sequence (O75116 1-552): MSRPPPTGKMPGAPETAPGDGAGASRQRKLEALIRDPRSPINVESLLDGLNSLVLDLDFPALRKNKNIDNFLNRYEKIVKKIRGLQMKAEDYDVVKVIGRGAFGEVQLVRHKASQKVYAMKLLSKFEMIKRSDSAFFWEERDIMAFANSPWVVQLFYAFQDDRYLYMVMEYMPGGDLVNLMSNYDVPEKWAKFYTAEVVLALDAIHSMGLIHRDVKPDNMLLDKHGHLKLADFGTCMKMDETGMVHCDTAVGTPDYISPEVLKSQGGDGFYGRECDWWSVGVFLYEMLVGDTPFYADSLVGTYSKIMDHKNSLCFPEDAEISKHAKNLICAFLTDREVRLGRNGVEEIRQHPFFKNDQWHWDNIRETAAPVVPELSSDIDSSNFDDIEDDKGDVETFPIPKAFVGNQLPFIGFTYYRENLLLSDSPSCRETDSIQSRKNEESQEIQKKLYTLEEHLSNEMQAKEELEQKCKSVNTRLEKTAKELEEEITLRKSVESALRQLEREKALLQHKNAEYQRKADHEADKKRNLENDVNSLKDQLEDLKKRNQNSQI
In the case of `Cc1c(-c2ccnc(N)n2)sc2ccc(C(=O)NCc3ccccc3Cl)cc12` [Example 409, Cc1c(sc2ccc(cc12)C(═O)NCc3ccccc3Cl)-c4ccnc(N)n4], the IC50 (commonly the point on the concentration scale where inhibition reaches its midpoint) is under 5 µM.
The same measure, in the same setting: the result for `Cc1c(-c2ccnc(N)n2)sc2ccc(C(=O)NCCc3ccccc3Cl)cc12` [Example 427, Cc1c(sc2ccc(cc12)C(═O)NCCc3ccccc3Cl)-c4ccnc(N)n4] reads under 5 µM.

Still in this experiment, the particulars now being: recombinant GST-tagged human ROCK2, luciferase-based ATP consumption; read-out: ROCK2 IC50.
With `Cc1ccc(CCNC(=O)c2ccc3sc(-c4ccnc(N)n4)c(C)c3c2)cc1` [Example 392, Cc1ccc(CCNC(═O)c2ccc3sc(c(C)c3c2)-c4ccnc(N)n4)cc1], the IC50 was over 5 µM.
The same measure, in the same setting: the same measure for `Cc1ccc(C)c(CNC(=O)c2ccc3sc(-c4ccnc(N)n4)c(C)c3c2)c1` [Example 393, Cc1ccc(C)c(CNC(═O)c2ccc3sc(c(C)c3c2)-c4ccnc(N)n4)c1]: under 5 µM; for `Cc1ccc([C@H](C)NC(=O)c2ccc3sc(-c4ccnc(N)n4)c(C)c3c2)cc1` [Example 394, C[C@H](NC(═O)c1ccc2sc(c(C)c2c1)-c3ccnc(N)n3)c4ccc(C)cc4]: over 5 µM.
Turning to `Cc1ccc([C@@H](C)NC(=O)c2ccc3sc(-c4ccnc(N)n4)c(C)c3c2)cc1` [Example 395, C[C@@H](NC(═O)c1ccc2sc(c(C)c2c1)-c3ccnc(N)n3)c4ccc(C)cc4], the IC50 was over 5 µM.
On the same count and under the same terms, the result for `Cc1c(-c2ccnc(N)n2)sc2ccc(C(=O)NCC(C)c3ccccc3)cc12` (stereo not shown) [Example 396, CC(CNC(═O)c1ccc2sc(c(C)c2c1)-c3ccnc(N)n3)c4ccccc4] reads under 5 µM.
Still for that read-out and setting: the same measure for `Cc1c(-c2ccnc(N)n2)sc2ccc(C(=O)NCCCc3ccccc3)cc12` [Example 397, Cc1c(sc2ccc(cc12)C(═O)NCCCc3ccccc3)-c4ccnc(N)n4]: under 5 µM; for `Cc1ccc(CNC(=O)c2ccc3sc(-c4ccnc(N)n4)c(C)c3c2)cc1C` [Example 398, Cc1ccc(CNC(═O)c2ccc3sc(c(C)c3c2)-c4ccnc(N)n4)cc1C]: over 5 µM.
In the case of `Cc1c(-c2ccnc(N)n2)sc2ccc(C(=O)NC(C)Cc3ccncc3)cc12` (stereo not shown) [Example 399, CC(Cc1ccncc1)NC(═O)c2ccc3sc(c(C)c3c2)-c4ccnc(N)n4], the IC50 is under 5 µM.
On the same count and under the same terms, the result for `Cc1c(-c2ccnc(N)n2)sc2ccc(C(=O)NCCc3ccc(O)cc3)cc12` [Example 400, Cc1c(sc2ccc(cc12)C(═O)NCCc3ccc(O)cc3)-c4ccnc(N)n4] reads under 5 µM; that for `Cc1c(-c2ccnc(N)n2)sc2ccc(C(=O)NCCOc3ccccc3)cc12` [Example 401, Cc1c(sc2ccc(cc12)C(═O)NCCOc3ccccc3)-c4ccnc(N)n4], under 5 µM.
Same read-out and setting: the same measure for `COc1ccccc1CNC(=O)c1ccc2sc(-c3ccnc(N)n3)c(C)c2c1` [Example 402, COc1ccccc1CNC(═O)c2ccc3sc(c(C)c3c2)-c4ccnc(N)n4]: under 5 µM; for `COc1ccc(CNC(=O)c2ccc3sc(-c4ccnc(N)n4)c(C)c3c2)cc1` [Example 403, COc1ccc(CNC(═O)c2ccc3sc(c(C)c3c2)-c4ccnc(N)n4)cc1]: under 5 µM.
Still for that read-out and setting: the result for `COc1cccc(CNC(=O)c2ccc3sc(-c4ccnc(N)n4)c(C)c3c2)c1` [Example 404, COc1cccc(CNC(═O)c2ccc3sc(c(C)c3c2)-c4ccnc(N)n4)c1] reads under 5 µM.
As to `Cc1c(-c2ccnc(N)n2)sc2ccc(C(=O)NCCc3ccc(F)cc3)cc12` [Example 405, Cc1c(sc2ccc(cc12)C(═O)NCCc3ccc(F)cc3)-c4ccnc(N)n4], the IC50 was under 5 µM.
On to `Cc1c(-c2ccnc(N)n2)sc2ccc(C(=O)NCCc3ccccc3F)cc12` [Example 406, Cc1c(sc2ccc(cc12)C(═O)NCCc3ccccc3F)-c4ccnc(N)n4], for which the IC50 is under 5 µM.
The same measure, in the same setting: the same measure for `Cc1c(-c2ccnc(N)n2)sc2ccc(C(=O)NCCc3cccc(F)c3)cc12` [Example 407, Cc1c(sc2ccc(cc12)C(═O)NCCc3cccc(F)c3)-c4ccnc(N)n4]: under 5 µM; for `Cc1c(-c2ccnc(N)n2)sc2ccc(C(=O)NCc3cccc(Cl)c3)cc12` [Example 408, Cc1c(sc2ccc(cc12)C(═O)NCc3cccc(Cl)c3)-c4ccnc(N)n4]: under 5 µM; for `Cc1c(-c2ccnc(N)n2)sc2ccc(C(=O)NCc3ccc(Cl)cc3)cc12` [Example 410, Cc1c(sc2ccc(cc12)C(═O)NCc3ccc(Cl)cc3)-c4ccnc(N)n4]: under 5 µM.
As for `Cc1c(-c2ccnc(N)n2)sc2ccc(C(=O)NCCCN3CCCC3=O)cc12` [Example 411, Cc1c(sc2ccc(cc12)C(═O)NCCCN3CCCC3═O)-c4ccnc(N)n4], the IC50 was over 5 µM.
Same read-out and setting: the same measure for `Cc1c(-c2ccnc(N)n2)sc2ccc(C(=O)NCc3ccc(F)cc3F)cc12` [Example 412, Cc1c(sc2ccc(cc12)C(═O)NCc3ccc(F)cc3F)-c4ccnc(N)n4]: under 5 µM; for `Cc1c(-c2ccnc(N)n2)sc2ccc(C(=O)NCc3ccc(F)c(F)c3)cc12` [Example 413, Cc1c(sc2ccc(cc12)C(═O)NCc3ccc(F)c(F)c3)-c4ccnc(N)n4]: under 5 µM; for `Cc1c(-c2ccnc(N)n2)sc2ccc(C(=O)NCc3cc(F)cc(F)c3)cc12` [Example 414, Cc1c(sc2ccc(cc12)C(═O)NCc3cc(F)cc(F)c3)-c4ccnc(N)n4]: under 5 µM.
On the same count and under the same terms, the same measure for `Cc1c(-c2ccnc(N)n2)sc2ccc(C(=O)NCCCN3CCOCC3)cc12` [Example 415, Cc1c(sc2ccc(cc12)C(═O)NCCCN3CCOCC3)-c4ccnc(N)n4]: under 5 µM; for `Cc1c(-c2ccnc(N)n2)sc2ccc(C(=O)NCCN(C(C)C)C(C)C)cc12` [Example 416, CC(C)N(CCNC(═O)c1ccc2sc(c(C)c2c1)-c3ccnc(N)n3)C(C)C]: under 5 µM; for `Cc1c(-c2ccnc(N)n2)sc2ccc(C(=O)NC3CCCc4ccccc43)cc12` (stereo not shown) [Example 417, Cc1c(sc2ccc(cc12)C(═O)NC3CCCc4ccccc34)-c5ccnc(N)n5]: under 5 µM.
Still for that read-out and setting: the same measure for `Cc1c(-c2ccnc(N)n2)sc2ccc(C(=O)NC(C)CCc3ccccc3)cc12` (stereo not shown) [Example 418, CC(CCc1ccccc1)NC(═O)c2ccc3sc(c(C)c3c2)-c4ccnc(N)n4]: over 5 µM; for `Cc1c(-c2ccnc(N)n2)sc2ccc(C(=O)NCc3ccc(C(C)C)cc3)cc12` [Example 419, CC(C)c1ccc(CNC(═O)c2ccc3sc(c(C)c3c2)-c4ccnc(N)n4)cc1]: under 5 µM; for `Cc1c(-c2ccnc(N)n2)sc2ccc(C(=O)NCc3ccc4c(c3)OCO4)cc12` [Example 420, Cc1c(sc2ccc(cc12)C(═O)NCc3ccc4OCOc4c3)-c5ccnc(N)n5]: under 5 µM.
`COc1cccc(CCNC(=O)c2ccc3sc(-c4ccnc(N)n4)c(C)c3c2)c1` [Example 421, COc1cccc(CCNC(═O)c2ccc3sc(c(C)c3c2)-c4ccnc(N)n4)c1]: the IC50 is under 5 µM.
On the same count and under the same terms, the same measure for `Cc1c(-c2ccnc(N)n2)sc2ccc(C(=O)N[C@H](CO)Cc3ccccc3)cc12` [Example 422, Cc1c(sc2ccc(cc12)C(═O)N[C@H](CO)Cc3ccccc3)-c4ccnc(N)n4]: under 5 µM; for `COc1ccc(CCNC(=O)c2ccc3sc(-c4ccnc(N)n4)c(C)c3c2)cc1` [Example 423, COc1ccc(CCNC(═O)c2ccc3sc(c(C)c3c2)-c4ccnc(N)n4)cc1]: under 5 µM.
For the molecule `COc1ccccc1CCNC(=O)c1ccc2sc(-c3ccnc(N)n3)c(C)c2c1` [Example 424, COc1ccccc1CCNC(═O)c2ccc3sc(c(C)c3c2)-c4ccnc(N)n4], the IC50 was under 5 µM.
On the same count and under the same terms, the result for `CCOc1ccccc1CNC(=O)c1ccc2sc(-c3ccnc(N)n3)c(C)c2c1` [Example 425, CCOc1ccccc1CNC(═O)c2ccc3sc(c(C)c3c2)-c4ccnc(N)n4] reads under 5 µM; that for `COc1ccc(NC(=O)c2ccc3sc(-c4ccnc(N)n4)c(C)c3c2)cc1OC` [Example 426, COc1ccc(NC(═O)c2ccc3sc(c(C)c3c2)-c4ccnc(N)n4)cc1OC], under 5 µM.
Turning to `Cc1c(-c2ccnc(N)n2)sc2ccc(C(=O)NCCc3ccc(Cl)cc3)cc12` [Example 428, Cc1c(sc2ccc(cc12)C(═O)NCCc3ccc(Cl)cc3)-c4ccnc(N)n4], the IC50 was under 5 µM.
On the same count and under the same terms, the same measure for `Cc1c(-c2ccnc(N)n2)sc2ccc(C(=O)NCCc3cccc(Cl)c3)cc12` [Example 429, Cc1c(sc2ccc(cc12)C(═O)NCCc3cccc(Cl)c3)-c4ccnc(N)n4]: under 5 µM; for `Cc1c(-c2ccnc(N)n2)sc2ccc(C(=O)NC3CC(C)(C)NC(C)(C)C3)cc12` [Example 430, Cc1c(sc2ccc(cc12)C(═O)NC3CC(C)(C)NC(C)(C)C3)-c4ccnc(N)n4]: under 5 µM.
Consider `CCN(CC)CCCC(C)NC(=O)c1ccc2sc(-c3ccnc(N)n3)c(C)c2c1` (stereo not shown) [Example 431, CCN(CC)CCCC(C)NC(═O)c1ccc2sc(c(C)c2c1)-c3ccnc(N)n3], for which the IC50 was over 5 µM.
